The NIST ThermoML archive (doi:10.1016/j.jct.2017.09.007)
Numbers after ± are expanded uncertainties.

What was measured:
[1] = Molar enthalpy of transition or fusion; conditions: Crystal; DSC
[2] = molar heat capacity at constant pressure; conditions: 298.15 K, 100 kPa, Small sample (50 mg) DSC
[3] = Crystal; DTA

CCOC(=O)c1ccccc1O [ethyl 2-hydroxybenzoate]
Molar enthalpy of transition or fusion [1]: 24.2 ± 0.61 kJ/mol | molar heat capacity at constant pressure ([2]; Liquid): 283.07 ± 4.4 J/K/mol | Normal melting temperature [3]: 1.33 ± 0.53 °C

CCOC(=O)c1cccc(O)c1 [ethyl 3-hydroxybenzoate]
Molar enthalpy of transition or fusion [1]: 25.8 ± 0.61 kJ/mol | molar heat capacity at constant pressure ([2]; Crystal): 217.22 ± 3.4 J/K/mol | Normal melting temperature [3]: 72.23 ± 0.46 °C

CCOC(=O)c1ccc(O)cc1 [ethyl 4-hydroxybenzoate]
Molar enthalpy of transition or fusion [1]: 27.5 ± 0.63 kJ/mol | molar heat capacity at constant pressure ([2]; Crystal): 233.93 ± 3.6 J/K/mol | Normal melting temperature [3]: 115.70 ± 0.45 °C
